Laboratory results taken from a melting point compilation (Tetko et al.).
Starred links: 1 amine or outer side, 2 acyl side, 3 side chain; linkers in the order of their positions; H or OH if unused. Positions of bridges follow the written chain, without caps; N, C: chain ends. Non-standard residues stand in square brackets, D forms with d. Residues, ends and D or L forms follow the SMILES beside them. *: point of attachment. X7 = CCC(C)C(N[*:1])C(O)CC(=O)OC(C(C)C)C(O)C(C)C(=O)[*:2]; Trt = c1ccc(C(c2ccccc2)(c2ccccc2)*)cc1; NMeY = CN[CH](Cc1ccc(O)cc1)C(=O)O; NMeL = CN[CH](CC(C)C)C(=O)O; Boc = CC(C)(C)OC(=O)*

In the case of CCCCCCCCCCCCCC=CC(OC(=O)c1ccccc1)C(COC1OC(CO)C(O)C(OCCCCC(C(=O)OC(C)(C)C)C(=O)OC(C)(C)C)C1O)NC(=O)CCCCCCCCCCCCCCC (stereo unspecified), the melting point is reported as 131 to 132 °C. OP(=S)(C(F)(F)C(F)(F)C(F)(F)C(F)(F)C(F)(F)C(F)(F)C(F)(C(F)(F)F)C(F)(F)F)C(F)(F)C(F)(F)C(F)(F)C(F)(F)C(F)(F)C(F)(F)C(F)(C(F)(F)F)C(F)(F)F showed a melting point greater than 300 °C. In the case of [C-]#[N+]C(c1cc(Br)c(OC)c(OC)c1)S(=O)(=O)c1ccc(C)cc1 (stereo unspecified), the melting point is reported as 109 to 110 °C. CCN1CCN(c2ccc(-c3ccnc(Nc4cc(OC)c(OC)c(OC)c4)n3)cn2)CC1 gave a melting point of 139 °C. Compound N=S(=O)(c1ccccc1)c1cccnc1 (stereo unspecified) has a melting point of 109 °C. Cc1ccc(S(=O)(=O)N2CCN(S(=O)(=O)c3ccc(C)cc3)CC(Cc3ccc(O)cc3)N(S(=O)(=O)c3ccc(C)cc3)N(S(=O)(=O)c3ccc(C)cc3)CC2)cc1 (stereo unspecified) showed a melting point of 192 to 193 °C. CCCCCCCCCCCCCCCC(=O)OCC(CSCC(NC(=O)OCc1cccc2c1Cc1ccccc1-2)C(=O)OC(C)(C)C)OC(=O)CCCCCCCCCCCCCCC (mixture of isomers) showed a melting point of 52 to 54 °C. Work on CCC(C)C1NC(=O)C(NC(=O)C(CC(C)C)NC)C(C)OC(=O)C(Cc2ccc(OC)cc2)N(C)C(=O)C2CCCN2C(=O)C(CC(C)C)NC(=O)C(C)C(O)C(C(C)C)OC(=O)CC1O (stereo unspecified) (H-[NMeL]T[X7]LP[NMeY](Me); ester 2-C; configuration not given here) yielded a melting point of 124 to 127 °C. In the case of COc1cc(C2c3cc4c(cc3C(NC(=O)CNCCCCN(CCCNC(=O)OCc3ccccc3)C(=O)OCc3ccccc3)C3COC(=O)C23)OCO4)cc(OC)c1O (stereo unspecified), the melting point is reported as 199 °C. O=C(O)CN1CCN(CC(=O)O)CCN(CC(=O)Nc2c(I)cc(I)c(C(=O)O)c2I)CCN(CC(=O)O)CC1 gave a melting point of 235 °C. O=C(Oc1ccc2c(OC(=O)c3ccc(OCc4ccccc4)cc3)c3cc(OC(=O)c4ccc(OCc5ccccc5)cc4)ccc3cc2c1)c1ccc(OCc2ccccc2)cc1 showed a melting point of 219 to 221 °C. For C=C(C)C(=O)OCCCCCCCCCCCOc1ccc(-c2nc(-c3ccc(OCCCCCCCCCCCOC(=O)C(=C)C)cc3O)nc(-c3ccc(OCCCCCCCCCCCOC(=O)C(=C)C)cc3O)n2)c(O)c1, the melting point was 60.2 °C. For CCCCC(Cc1cc(C(C)(C)C)c(O)c(C(C)(C)C)c1)(C(=O)OC1CC(C)(C)N(OC2CCCCC2)C(C)(C)C1)C(=O)OC1CC(C)(C)N(OC2CCCCC2)C(C)(C)C1, the melting point was 184 to 185 °C. For O=C(NCCCCCCCCCCCCNC(=O)C(O)C(O)C(OC1OC(CO)C(O)C(O)C1O)C(O)CO)C(O)C(O)C(OC1OC(CO)C(O)C(O)C1O)C(O)CO (stereo unspecified), the melting point was 79 to 81 °C. With O=C(NCCCN1CCOCC1)c1ccc(-c2ccc(Br)cc2)o1 the melting point was 83 to 100 °C. Compound CC(C)=CCCC(C)=CCCC(C)=CCCC(C)=CCCC(C)=CCCC(C)=CCCC(C)=CCCC(C)=CCCC(C)=CCCC(C)=CCNCC12CCCN1CCC2 has a melting point of 59 to 61 °C. Clc1c(Br)c(Cl)c(COCc2c(Cl)c(Br)c(Cl)c(Br)c2Br)c(Br)c1Br gave a melting point of 274 to 276 °C. Compound [N-]=[N+]=C(C(=O)OCCN(CCOC(=O)C(=[N+]=[N-])C(=O)C1CCCCC1)CCN(CCOC(=O)C(=[N+]=[N-])C(=O)C1CCCCC1)CCOC(=O)C(=[N+]=[N-])C(=O)C1CCCCC1)C(=O)C1CCCCC1 has a melting point of 112 to 114 °C. Work on O=C(CCS(=O)(=O)CCCl)OCC(COC(=O)CCS(=O)(=O)CCCl)(COC(=O)CCS(=O)(=O)CCCl)COC(=O)CCS(=O)(=O)CCCl yielded a melting point of 68 to 69 °C. In the case of CCCNC(Cc1cc(I)c(Oc2cc(I)c(O)c(I)c2)c(I)c1)C(=O)O (stereo unspecified), the melting point is reported as 212 to 213 °C. With O=C1COc2cc3c(cc2O1)C1(CO3)CN(Cc2cnccn2)c2ccccc21 (stereo unspecified) the melting point was 216 to 218 °C. In the case of O=[N+]([O-])c1ccc2cn[nH]c(=S)c2c1, the melting point is reported as 233 to 234 °C. Work on CC(C)(C)c1cc(CCC(=O)OC2C(C)(C)C(OC(=O)CCc3cc(C(C)(C)C)c(O)c(C(C)(C)C)c3)C(C)(C)C(OC(=O)CCc3cc(C(C)(C)C)c(O)c(C(C)(C)C)c3)C2(C)C)cc(C(C)(C)C)c1O (stereo unspecified) yielded a melting point of 105 to 115 °C. Work on COC(=O)C(Cc1ccccc1)NC(=O)C(Cc1ccccc1)NC(=O)C(CC(N)=O)NC(=O)C(CCCCNC(=O)OC(C)(C)C)NC(=O)C(CSC(c1ccccc1)(c1ccccc1)c1ccccc1)NC(=O)CNC(=O)C(C)NC(=O)CNC(=O)CNC(=O)C(CC(C)C)NC(=O)OC(C)(C)C (stereo unspecified) (Boc-LGGAGC(Trt)K(Boc)NFF-OMe; configuration not given here) yielded a melting point of 238 to 240 °C. Compound CC(CCCCCCCCCCCCc1scc(Br)c1Br)C(=O)C(C)CCCCCCCCCCCCc1scc(Br)c1Br (stereo unspecified) has a melting point of 50 to 52 °C. For CCCC(=O)c1cnc2c(C(C)O)cccc2c1Nc1ccccc1C (stereo unspecified), the melting point was 140 to 142 °C. In the case of CCCCCCCCCCCCN(c1nc(NCC(O)C2CC(C)(C)NC(C)(C)C2)nc(NCC(O)C2CC(C)(C)NC(C)(C)C2)n1)c1nc(NCC(O)C2CC(C)(C)NC(C)(C)C2)nc(NCC(O)C2CC(C)(C)NC(C)(C)C2)n1 (stereo unspecified), the melting point is reported as 106 to 110 °C. Compound FC(F)(F)C(F)(F)C(F)(F)C(F)(F)C(F)(F)C(F)(F)c1nc2c(Br)sc(Br)c2nc1C(F)(F)C(F)(F)C(F)(F)C(F)(F)C(F)(F)C(F)(F)F has a melting point of 46 to 47 °C. With CC1CNc2c(cccc2S(=O)(=O)NC(CCCc2cn(C(c3ccccc3)(c3ccccc3)c3ccccc3)cn2)C(=O)N2CCC(C)CC2C(=O)NOCc2ccccc2)C1 (stereo unspecified) the melting point was 90 to 100 °C. CN(C(=O)C(CC(Cc1ccccc1)C(N)=O)NC(=O)OCc1ccccc1)c1ccc(OCC(=O)NC(CC(N)=O)C(=O)NC(Cc2ccccc2)C(O)C(=O)N2CCCC2C(=O)NC(C)(C)C)cc1 (stereo unspecified) showed a melting point of 85 to 91 °C. Compound CCCCC1(CC)CS(=O)(=O)c2ccc(N(C)C)cc2C(c2cccc(NC(=O)COCCOCC(=O)NCc3ccc(N4C(=O)C(CCC(O)c5ccc(F)cc5)C4c4ccc(OC)cc4)cc3)c2)C1O (stereo unspecified) has a melting point of 116 to 125 °C. With CON=C(C(=O)NC1C(=O)N2C1CSC(c1ccc(Cl)cc1)C2(O)C(=O)OC(C)(C)C)c1csc(NC(c2ccccc2)(c2ccccc2)c2ccccc2)n1 (stereo unspecified) the melting point was 191 °C. For C=CCC1C=C(C)CC(C)CC(OC)C2OC(O)(C(C)CC2OC)C(O)C(=O)N2CCCCC2C(=O)OC(C(C)=CC2CCC(O)C(OC)C2)C(C)C(O)CC1O (stereo unspecified), the melting point was 130 to 150 °C. With CCCCCCCCCCOc1cc2c3c(c4cc(OCCCCCCCCCC)c(OCCCCCCCCCC)cc4c2cc1OCCCCCCCCCC)C(=O)C=CC3=O the melting point was 86 to 87 °C. Cc1cc(C(F)(F)F)ccc1Cn1nc(OC(C)C)cc1CCCOc1ncccc1CC(=O)O gave a melting point of 105 to 107 °C. In the case of CCCCCCc1cc(S(C)(=O)=NS(=O)(=O)c2ccc(C)cc2)ccc1O (stereo unspecified), the melting point is reported as 109 to 110 °C. With CCOCc1nc2c(N)nc3cc(-c4cccnc4)ccc3c2n1CC1CCN(C(=O)C2CCCO2)CC1 (stereo unspecified) the melting point was 191 to 192 °C. CC(C)CCCC(C)C1CCC2C3CC=C4CC(NCCCCC(=O)NCCC(=O)NCCC(=O)NCCCCC(C(=O)O)N(CC(=O)O)CC(=O)O)CCC4(C)C3CCC12C (stereo unspecified) gave a melting point of 101 to 103 °C. With [C-]#[N+]C(=CC=C1C=C(c2ccccc2)C=C(c2ccccc2)O1)C(=O)OCC the melting point was 150 to 152 °C. CC(C)OC(=O)C(CCC(C(=O)OC(C)C)N1CCN(CC(=O)OC(C)(C)C)CCN(C=O)CCN(CC(=O)OC(C)(C)C)CC1)N1CCN(CC(=O)OC(C)(C)C)CCN(C=O)CCN(CC(=O)OC(C)(C)C)CC1 (stereo unspecified) showed a melting point of 125 to 127 °C. Work on COc1cc(NC(=O)N2CCCC2)c(S(C)(=N)=O)cc1OC (stereo unspecified) yielded a melting point of 312 to 314 °C.
